Common to all, as to experiment: HPAEC-PAD product analysis
Test [1] addresses T1, LacZ6 (LacZ6His) (Bifidobacterium breve, UniProt D4BR09).
T1 construct: gene BIFBRE_04539
The following applies: 20 mM MOPS pH 7.0, 37 °C, 24 h, 1 mg/ml substrate.

In test [2] the target is T2, LntA (LntAHis) (Bifidobacterium breve, UniProt D4BMY8).
T2 construct: gene BIFBRE_03435; GH42 beta-galactosidase; purified His-tagged protein
The test is classed as biochemical. As to conditions: 20 mM MOPS pH 7.0, 37 °C, 24 h, 1 mg/ml substrate.

In test [3] the target is T3, NahA (NahAHis) (Bifidobacterium breve, UniProt D4BR02).
T3 construct: gene BIFBRE_04532; GH20 beta-N-acetylhexosaminidase; N-terminal His10 tag; gene of 660 codons; expressed in Lactococcus lactis NZ9000
T3 sequence (D4BR02 entry or part of it): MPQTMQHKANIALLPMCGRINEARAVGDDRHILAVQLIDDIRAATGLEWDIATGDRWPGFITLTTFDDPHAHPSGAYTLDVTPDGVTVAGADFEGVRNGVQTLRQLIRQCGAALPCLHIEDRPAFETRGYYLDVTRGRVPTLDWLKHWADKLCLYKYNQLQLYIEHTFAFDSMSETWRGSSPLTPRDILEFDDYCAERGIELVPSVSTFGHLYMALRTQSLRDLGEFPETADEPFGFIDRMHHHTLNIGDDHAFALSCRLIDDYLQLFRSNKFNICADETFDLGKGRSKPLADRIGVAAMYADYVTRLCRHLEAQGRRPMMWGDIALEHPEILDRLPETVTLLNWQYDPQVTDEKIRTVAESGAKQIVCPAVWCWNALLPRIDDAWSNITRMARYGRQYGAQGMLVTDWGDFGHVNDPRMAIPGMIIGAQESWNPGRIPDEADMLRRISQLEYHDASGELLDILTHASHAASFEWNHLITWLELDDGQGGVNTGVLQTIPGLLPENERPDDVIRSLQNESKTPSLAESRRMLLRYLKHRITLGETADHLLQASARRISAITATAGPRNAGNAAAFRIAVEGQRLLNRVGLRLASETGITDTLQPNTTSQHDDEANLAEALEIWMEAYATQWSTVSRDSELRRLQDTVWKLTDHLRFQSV
It counts as biochemical. As to conditions: MOPS pH 7.0, 37 °C; lacto-N-triose made in situ from LNT or LNnT by LntA, LntA heat-denatured before NahA addition.

Structures are written as SMILES.

T2 sequence (D4BMY8 1-691): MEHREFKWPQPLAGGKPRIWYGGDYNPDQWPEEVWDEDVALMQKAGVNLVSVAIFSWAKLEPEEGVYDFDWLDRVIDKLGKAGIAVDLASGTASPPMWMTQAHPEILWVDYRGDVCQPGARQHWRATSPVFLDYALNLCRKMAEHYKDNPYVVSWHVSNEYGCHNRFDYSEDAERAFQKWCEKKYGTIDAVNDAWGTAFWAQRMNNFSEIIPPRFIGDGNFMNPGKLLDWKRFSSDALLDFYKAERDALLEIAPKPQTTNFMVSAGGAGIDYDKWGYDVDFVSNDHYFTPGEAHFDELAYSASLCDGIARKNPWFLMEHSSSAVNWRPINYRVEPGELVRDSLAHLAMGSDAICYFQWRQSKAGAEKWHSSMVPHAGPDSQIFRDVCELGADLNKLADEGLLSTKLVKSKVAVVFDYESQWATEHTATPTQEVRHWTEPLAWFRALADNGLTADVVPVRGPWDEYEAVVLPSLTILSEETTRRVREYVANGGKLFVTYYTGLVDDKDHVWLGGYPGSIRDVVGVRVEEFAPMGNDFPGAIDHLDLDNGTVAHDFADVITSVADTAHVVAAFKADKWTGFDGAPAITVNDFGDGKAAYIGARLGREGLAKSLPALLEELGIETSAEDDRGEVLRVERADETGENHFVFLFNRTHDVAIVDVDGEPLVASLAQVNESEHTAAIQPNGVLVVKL
T1 sequence (D4BR09 1-1045): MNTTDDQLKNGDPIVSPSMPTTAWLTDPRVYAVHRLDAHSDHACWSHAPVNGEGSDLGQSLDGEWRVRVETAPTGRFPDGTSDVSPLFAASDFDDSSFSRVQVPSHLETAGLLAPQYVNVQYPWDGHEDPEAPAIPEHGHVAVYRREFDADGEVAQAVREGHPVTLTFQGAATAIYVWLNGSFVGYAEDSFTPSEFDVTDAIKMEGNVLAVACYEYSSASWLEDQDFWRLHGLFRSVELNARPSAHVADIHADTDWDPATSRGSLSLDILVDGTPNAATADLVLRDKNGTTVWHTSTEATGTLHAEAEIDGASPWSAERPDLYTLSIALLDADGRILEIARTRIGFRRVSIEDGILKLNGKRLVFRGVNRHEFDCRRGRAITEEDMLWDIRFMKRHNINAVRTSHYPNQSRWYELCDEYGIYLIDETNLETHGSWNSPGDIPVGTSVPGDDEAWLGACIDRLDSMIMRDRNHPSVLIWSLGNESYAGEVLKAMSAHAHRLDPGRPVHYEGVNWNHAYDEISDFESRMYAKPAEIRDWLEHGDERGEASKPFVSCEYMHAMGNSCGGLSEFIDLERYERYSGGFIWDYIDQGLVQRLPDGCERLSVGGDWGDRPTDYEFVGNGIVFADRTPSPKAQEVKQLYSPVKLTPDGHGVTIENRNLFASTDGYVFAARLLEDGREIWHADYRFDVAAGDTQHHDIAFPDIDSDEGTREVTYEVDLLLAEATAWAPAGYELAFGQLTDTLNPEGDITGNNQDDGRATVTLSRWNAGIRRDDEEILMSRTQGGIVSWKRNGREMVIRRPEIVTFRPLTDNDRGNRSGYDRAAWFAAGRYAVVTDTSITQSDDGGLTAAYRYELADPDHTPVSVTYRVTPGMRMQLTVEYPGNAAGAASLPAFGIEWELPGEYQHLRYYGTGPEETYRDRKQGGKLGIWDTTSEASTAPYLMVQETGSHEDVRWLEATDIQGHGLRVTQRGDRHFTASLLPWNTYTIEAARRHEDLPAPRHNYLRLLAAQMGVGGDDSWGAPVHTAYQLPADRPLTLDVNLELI

With `CC(=O)N[C@H]1[C@H](O[C@H]2[C@@H](O)[C@@H](CO)O[C@@H](O[C@H]3[C@H](O)[C@@H](O)C(O)O[C@@H]3CO)[C@@H]2O)O[C@H](CO)[C@@H](O[C@@H]2O[C@H](CO)[C@H](O)[C@H](O)[C@H]2O)[C@@H]1O` (stereo partly shown) [LNnT, lacto-N-neotetraose], the HPAEC-PAD product analysis entry in test [1] is “Purified LacZ2His and LacZ6His were, under the conditions applied, also capable of hydrolysing LNnT”; in test [2], “Purified LntAHis was capable of removing the galactose moiety at the non-reducing end of LNnT”.

`CC(=O)N[C@H]1[C@H](O[C@H]2[C@@H](O)[C@@H](CO)O[C@@H](O[C@H]3[C@H](O)[C@@H](O)C(O)O[C@@H]3CO)[C@@H]2O)O[C@H](CO)[C@@H](O)[C@@H]1O` (stereo partly shown) [lacto-N-triose]: the HPAEC-PAD product analysis result in test [3] was “Lacto-N-triose is then hydrolysed by NahA, liberating Lactose and GlcNAc”.

For the compound `CC(=O)N[C@H]1[C@H](O[C@H]2[C@@H](O)[C@@H](CO)O[C@@H](O[C@H]3[C@H](O)[C@@H](O)C(O)O[C@@H]3CO)[C@@H]2O)O[C@H](CO)[C@@H](O)[C@@H]1O[C@@H]1O[C@H](CO)[C@H](O)[C@H](O)[C@H]1O` (stereo partly shown) [LNT, lacto-N-tetraose], the HPAEC-PAD product analysis entry in test [2] is “Purified LntAHis was shown to remove the galactose moiety at the non-reducing end”.

The values are drawn from paper PMC5144078, “Bifidobacterium breve UCC2003 metabolises the human milk oligosaccharides lacto-N-tetraose and lacto-N-neo-tetraose through overlapping, yet distinct pathways” (Scientific Reports, 2016).
